# From the NIST ThermoML archive (doi:10.1021/je200646r)
# ± gives the expanded uncertainty stated by the source.
# Test: refractive index (Na D-line) (dimensionless)
# Settings: 293.15 K; 101.33 kPa; Liquid; Standard Abbe refractometry
row,refractive index,Structure (SMILES)
1,1.32862 ± 0.0004,CO [methanol]
2,1.42155 ± 0.00045,CCCCCCCCCCCC [dodecane]
3,1.37709 ± 0.0004,CC(C)O [propan-2-ol]
4,1.36162 ± 0.0004,CCO [ethanol]

# Test: not given
# Settings: 293.15 K; 101.33 kPa; Liquid; Vibrating tube method
row,mass density [kg/m3],Structure (SMILES)
1,791.46 ± 0.15,CO [methanol]
2,749.6 ± 0.31,CCCCCCCCCCCC [dodecane]
3,785.46 ± 0.15,CC(C)O [propan-2-ol]
4,792.05 ± 0.15,CCO [ethanol]
